According to patent publication US12297192B2, “Crystal form of pyrimidine sulfonamide compound and preparation method therefor” (WUXI BIOCITY BIOPHARMACEUTICS CO., LTD., priority 2019, dated 2025):
Like-named read-outs stand apart in the source and are kept apart here.

Legend:
[1] = target: T1, bile salt export pump (BSEP) (Homo sapiens, UniProt O95342); assay: Inhibition test on bile salt export pump (BSEP), taurocholic acid uptake in BSEP-Hi5-VT vesicles; format: in vitro ADME
T1 construct: purchased Solvo Biotechnology SB-BSEP-Hi5-VT; host or cells: Hi5 insect cells (read from the product name), membrane vesicles
T1 sequence (O95342 whole entry): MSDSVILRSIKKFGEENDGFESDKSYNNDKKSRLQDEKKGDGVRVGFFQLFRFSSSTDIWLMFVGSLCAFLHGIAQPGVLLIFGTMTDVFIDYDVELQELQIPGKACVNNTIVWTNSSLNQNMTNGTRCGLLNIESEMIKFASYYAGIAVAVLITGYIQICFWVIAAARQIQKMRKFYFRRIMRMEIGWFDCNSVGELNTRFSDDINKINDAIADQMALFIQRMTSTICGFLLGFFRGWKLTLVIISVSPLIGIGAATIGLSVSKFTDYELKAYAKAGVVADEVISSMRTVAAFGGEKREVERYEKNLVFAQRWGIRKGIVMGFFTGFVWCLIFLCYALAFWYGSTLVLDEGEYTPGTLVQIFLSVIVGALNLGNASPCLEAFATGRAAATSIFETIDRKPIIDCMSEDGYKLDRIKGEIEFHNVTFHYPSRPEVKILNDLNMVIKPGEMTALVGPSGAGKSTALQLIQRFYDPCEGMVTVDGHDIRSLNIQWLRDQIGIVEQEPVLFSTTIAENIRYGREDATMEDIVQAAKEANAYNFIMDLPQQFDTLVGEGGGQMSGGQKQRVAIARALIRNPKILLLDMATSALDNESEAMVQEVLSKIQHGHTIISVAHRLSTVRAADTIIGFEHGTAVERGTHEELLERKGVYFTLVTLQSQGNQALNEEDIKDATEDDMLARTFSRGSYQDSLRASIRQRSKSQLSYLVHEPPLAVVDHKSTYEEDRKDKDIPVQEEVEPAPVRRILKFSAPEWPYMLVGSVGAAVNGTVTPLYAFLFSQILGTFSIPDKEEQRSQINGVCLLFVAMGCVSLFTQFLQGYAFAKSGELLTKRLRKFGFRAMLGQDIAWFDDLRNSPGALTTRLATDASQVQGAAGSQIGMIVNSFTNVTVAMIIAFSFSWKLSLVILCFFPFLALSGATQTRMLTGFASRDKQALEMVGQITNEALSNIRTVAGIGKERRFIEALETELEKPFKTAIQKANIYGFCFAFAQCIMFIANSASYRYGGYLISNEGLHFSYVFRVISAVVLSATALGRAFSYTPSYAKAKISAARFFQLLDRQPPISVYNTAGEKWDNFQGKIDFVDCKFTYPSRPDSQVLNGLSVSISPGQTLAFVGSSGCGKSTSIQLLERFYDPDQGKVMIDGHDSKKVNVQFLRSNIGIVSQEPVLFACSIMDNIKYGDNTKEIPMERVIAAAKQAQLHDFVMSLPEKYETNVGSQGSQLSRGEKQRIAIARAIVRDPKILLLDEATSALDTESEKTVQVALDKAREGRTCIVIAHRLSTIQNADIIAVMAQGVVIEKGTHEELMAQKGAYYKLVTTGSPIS
Procedure: Compounds were diluted to 100 mM with DMSO; then subjected to a serial dilution of 3-fold for eleven dilutions. The minimum concentration was 0.169 μM. • 2. […] The minimum concentration was 19.5 μM. Experimental Protocol: • 1. ECHO was used to transfer 0.3 μl of DMSO solution of the compounds or diluted DMSO to the corresponding wells of the compounds plate, respectively. • 2. 14.7 μl of ATP Buffer was added into the corresponding wells of the compounds and the zero percent effect (ZPE), respectively. • 3. 14.7 μl of AMP Buffer was added into the corresponding wells of the hundred percent effect (HPE). • 4. The plate was shaken for 10 minutes at 25° C. • 5. 15 μl of BSEP-Hi5-VT Vesicle solution was added to each well separately and the plate was shaken for a further 40 minutes at 25° C. • 6. 5 μl of 0.5 M Ethylenediaminetetraacetic acid (EDTA) solution was immediately added to each well, followed by 65 μl of Buffer B. All reactions were complete. • 7. After the reactions were complete, 95 μl of liquid was transferred from the compounds plate to the filter plate using apparatus. • 8. The liquid receiving plate was placed under the filter plate. Then the liquid was removed using a centrifuge. The liquid on the receiving plate was discarded. • 9. 90 μl of Buffer B was added to the filter plate. The liquid receiving plate was placed under the filter plate. Then the liquid was removed using a centrifuge. The liquid on the receiving plate was discarded. The filter plate was washed three times in total. • 10. The filter plate was left to dry overnight. • 11. On the next day, 80 μl of methanol/water (80/20, v/v) solution was added to the filter plate. • 12. The plate was vibrated for 15 minutes after applying the film to the filter plate. • 13. […] Taurocholic acid in the receiving plate was determined using LC/MS/MS.
Several concentrations were tested in each experiment and the data was analyzed using Prism to produce a concentration-response curve to calculate the IC50 values of the compounds.

[2] = Pharmacokinetics accompanying the efficacy in the MCT-induced rat model of pulmonary hypertension; format: in vivo, SD rats; settings: day 21, mean, n = 3; for MRT inf: read-out: MRT0-inf; for MRT last: read-out: MRT0-last
Procedure: Blood samples were taken before and after dosing on the day of the endpoint, at time points of 0, 0.25, 0.5, 1, 2, 4, 6 and 8 h. The rats were placed in a fixator, 250 μL of blood was collected from the tail vein, transferred to an EP tube with anticoagulant (5-8 μL of 15% EDTA), inverted and shaken, and immediately placed on wet ice for temporary storage. The collected blood samples were placed in centrifugal machines and centrifuged at 4° C., 3000 rpm for 15 min. The plasma was collected after centrifugation and immediately placed on dry ice. After all samples have been collected and transferred to cryopreservation at −80° C. for pharmacokinetic analysis.
Blood samples were collected before and after dosing on day 21 and collected at time points 0, 0.25, 0.5, 1, 2, 4, 6 and 8 h for analysis of plasma drug concentrations of the compound of formula (I) and Macitentan.

[3] = target: T2, Human Pregnane X Receptor (PXR) (Homo sapiens, UniProt O75469); assay: Human pregnane X receptor (PXR) test, induction of PXR-mediated CYP3A expression in DPX2 cells; format: in vitro ADME
T2 construct: host or cells: DPX2 cells
T2 sequence (O75469 1-434): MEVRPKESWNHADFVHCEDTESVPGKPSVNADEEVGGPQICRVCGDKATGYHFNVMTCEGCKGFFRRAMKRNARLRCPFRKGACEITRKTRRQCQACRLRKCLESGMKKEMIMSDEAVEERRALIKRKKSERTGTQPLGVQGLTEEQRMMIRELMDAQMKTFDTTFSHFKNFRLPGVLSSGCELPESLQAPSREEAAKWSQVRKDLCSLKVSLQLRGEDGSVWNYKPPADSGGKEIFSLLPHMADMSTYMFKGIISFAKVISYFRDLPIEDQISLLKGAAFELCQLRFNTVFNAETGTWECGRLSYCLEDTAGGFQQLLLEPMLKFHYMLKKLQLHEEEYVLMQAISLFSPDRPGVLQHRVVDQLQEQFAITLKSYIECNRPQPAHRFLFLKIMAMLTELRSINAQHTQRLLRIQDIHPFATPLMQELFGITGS
Procedure: To assess the induction of PXR-mediated CYP3A expression by the compounds.
Experimental Protocol: • 1. The DPX2 cells was thawed under aseptic conditions. • 2. The DPX2 cytosol was distributed in 96-well plates (100 μl/well) and placed the plates in a 5% CO2/37° C. incubator overnight. • 3. The quantitative feeding medium was thawed in a 37° C. water bath. The positive control rifampicin was thawed at room temperature. A series of the test compound and positive control dilutions were prepared in quantitative feeding medium. The medium was carefully aspirated and discarded from each well, without disturbing the cells during the aspiration process. […] Enzyme activity test: • (1) 7 μl of Luciferin-IPA was added to 7 ml of quantitative feeding medium, inverted to mix, and poured into the Luciferin-IPA reagent tank. • (2) The 96-well plate was taken out of the incubator and the medium was carefully aspirated from each well. […] The plate was placed back to the incubator for 60 minutes. • (7) 40 μl of Luciferin detection reagent/P450-Glo buffer was added to each well of the replicate plate, stirred and incubated for 20 minutes at room temperature. • (8) After incubation with Luciferin detection reagent for 20 minutes, a luminometer (set for 1-5 seconds. Read out time) was used to determine the luminescence of each well of the white 96-well plate. […] The fluorescence intensity of each well was measured. […]

[4] = Sprague-Dawley, rat, plasma, po, 1 mg/kg gavage
[5] = Sprague-Dawley, rat, plasma, po, 3 mg/kg gavage
[6] = Sprague-Dawley, rat, plasma, po, 30 mg/kg gavage

COCCNS(=O)(=O)Nc1ncnc(OCCOc2ncc(Br)cn2)c1-c1ccc2c(c1)OCO2 [Compound of formula (I)]
Inhibitory effect on bile salt export pump (in words) [1]: extremely weak inhibitory effect
AUC0-inf/AUC0-last ([2]; 1 mg/kg gavage): 111%
Tlast ([2]; 1 mg/kg gavage): 8.00 h
AUC0-inf/AUC0-last ([2]; 3 mg/kg gavage): 132%
AUC(0-inf) ([2]; 3 mg/kg gavage): 5540 ng·h/mL
Tlast ([2]; 3 mg/kg gavage): 8.00 h
AUC(0-inf) ([2]; Sprague-Dawley, rat, plasma, po, 1 mg/kg, 1 mg/kg gavage, read-out: AUC0-inf): 1410 ng·h/mL
AUC(0-inf) ([2]; Sprague-Dawley, rat, plasma, po, 3 mg/kg, 3 mg/kg gavage, read-out: AUC0-inf): 5230 ng·h/mL
AUC(0-t) [2, 4]: 1270 ng·h/mL
Cmax [2, 4]: 345 nM
Tmax [2, 4]: 1 h
half-life [2, 4]: 2.3 h
MRT inf [2, 4]: 3.64 h
MRT last [2, 4]: 2.83 h
AUC(0-t) [2, 5]: 4220 ng·h/mL
Cmax [2, 5]: 1120 nM
Tmax [2, 5]: 1 h
half-life [2, 5]: 3.64 h
MRT inf [2, 5]: 5.52 h
MRT last [2, 5]: 3.04 h
Induction of PXR-mediated CYP3A expression (in words) [3]: weak induction

CCCNS(=O)(=O)Nc1ncnc(OCCOc2ncc(Br)cn2)c1-c1ccc(Br)cc1 [Macitentan, reference compound]
Inhibitory effect on bile salt export pump (in words) [1]: strong inhibitory effect
IC50 ([1]; taurocholic acid substrate, BSEP-Hi5-VT vesicles): 470 nM
Tlast ([2]; 30 mg/kg gavage): 8.00 h
AUC(0-t) [2, 6]: 11000 ng·h/mL
Cmax [2, 6]: 1840 nM
Tmax [2, 6]: 4.08 h
MRT last [2, 6]: 4.38 h
Induction of PXR-mediated CYP3A expression (in words) [3]: strong induction
